Several values for one entry are separate records, joined by “and”; a condition that tells them apart may be missing. Equal entries are not always repeated.
Details: Liquid, Calculated from knudsen effusion weight loss

Nc1cc(N)nc(N)n1 [2,4,6-pyrimidinetriamine]
Details | vapor or sublimation pressure
391.14 K | 7.42e-05 kPa and 7.31e-05 kPa and 7.14e-05 kPa
393.15 K | 9.48e-05 kPa and 8.89e-05 kPa and 8.51e-05 kPa
395.15 K | 0.00011 kPa and 0.000107 kPa and 0.0001 kPa
397.13 K | 0.000131 kPa and 0.000124 kPa and 0.000141 kPa
399.13 K | 0.000167 kPa and 0.000166 kPa and 0.000148 kPa
401.15 K | 0.0002 kPa and 0.000188 kPa and 0.000186 kPa
403.15 K | 0.000247 kPa and 0.000237 kPa and 0.000215 kPa
405.15 K | 0.000292 kPa and 0.000287 kPa and 0.000258 kPa
407.15 K | 0.000345 kPa and 0.000316 kPa and 0.000319 kPa
409.12 K | 0.000393 kPa and 0.000407 kPa and 0.000375 kPa
411.12 K | 0.000484 kPa and 0.000487 kPa and 0.000439 kPa
413.15 K | 0.000593 kPa and 0.00054 kPa and 0.000536 kPa

Nc1ccnc(N)n1 [2,4-pyrimidinediamine]
Details | vapor or sublimation pressure
335.12 K | 7.78e-05 kPa and 7.75e-05 kPa and 7.72e-05 kPa
338.18 K | 0.000109 kPa and 0.00011 kPa and 0.000105 kPa
341.17 K | 0.00015 kPa and 0.000145 kPa and 0.000141 kPa
344.12 K | 0.000208 kPa and 0.000202 kPa and 0.000212 kPa
347.17 K | 0.000291 kPa and 0.000283 kPa and 0.000274 kPa
350.17 K | 0.000391 kPa and 0.000378 kPa
353.12 K | 0.000554 kPa and 0.000535 kPa and 0.000532 kPa
356.18 K | 0.00074 kPa and 0.000736 kPa and 0.000697 kPa
359.16 K | 0.000989 kPa and 0.000945 kPa and 0.000904 kPa

Source: the NIST ThermoML archive (doi:10.1016/j.jct.2012.05.015)
